For two compounds, Kd results are on record in publication doi:10.1101/2025.06.05.657999, “A secreted fatty acid- and retinol- binding protein from Heligmosomoides polygyrus suppresses host macrophage polarization” (bioRxiv, 2025).

Test [1] addresses T1, Hp-FAR-2 (Heligmosomoides polygyrus, UniProt A0A183GLK6).
T1 construct: mature protein, residues 18-180 of 180 (signal peptide removed), N-terminal 6-His tag, pET histev N'term, E. coli BL21(DE3), Ni-NTA and SEC; ~17-18 kDa on SDS-PAGE
Put plainly: fluorescence titration of retinol, one-site fit. The test is classed as binding.

The target of test [2] is T1, Hp-FAR-2. Put plainly: fluorescence titration, one-site fit. Type of test: binding.

T1 sequence (A0A183GLK6 entry or part of it): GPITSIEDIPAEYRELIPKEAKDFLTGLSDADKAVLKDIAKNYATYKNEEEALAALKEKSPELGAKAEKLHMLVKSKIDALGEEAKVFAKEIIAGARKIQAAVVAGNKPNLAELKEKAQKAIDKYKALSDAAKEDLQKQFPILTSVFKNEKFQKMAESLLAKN

On to `CC1=C(/C=C/C(C)=C/C=C/C(C)=C/CO)C(C)(C)CCC1` [retinol], for which the Kd (commonly the free concentration of one partner at which half of the binding sites on the other are occupied at equilibrium, for simple one-to-one binding) at Hp-FAR-2 [1] is 6.55 µM. On Hp-FAR-2 [2], `CN(C)c1cccc2c(S(=O)(=O)NCCCCCCCCCCC(=O)O)cccc12` [DAUDA] had a Kd of 2.65 µM.
